“And” between values parts separate entries of the source, which are not always exact repeats. Identical values can stand only once. Like-named read-outs stand apart in the source and are kept apart here.
Test system: M. mycetomatis genome strain MM55
Test: CLSI M38-A2 based in vitro susceptibility screening (XTT or resazurin), growth at fixed concentration
Type: cell-based, Madurella mycetomatis
Conditions: for activity at 25 µM / activity at 100 µM / Percent fungal survival at 100 µM: Madurella mycetomatis; for Percent fungal survival at 100 µM: read-out: Percentage survival at 100um, 100 uM A (second replicate column)
[1] = 25 uM, mean of three replicates, read-out: Percentage survival at 25um, 25 uM mean
[2] = 25 uM, replicate A, read-out: Percentage survival at 25um, 25 um A
[3] = 25 uM, replicate B, read-out: Percentage survival at 25um, 25 uM B
[4] = 25 uM, replicate C, read-out: Percentage survival at 25um, 25 uM C
[5] = 100 uM, first replicate column, read-out: Percentage survival at 100um, 100 uM A
[6] = 100 uM, mean of three replicates, read-out: Percentage survival at 100um, 100 uM mean
[7] = 100 uM, second replicate column, read-out: Percentage survival at 100um, 100 uM A
[8] = 100 uM, third replicate column, read-out: Percentage survival at 100um, 100 uM A
[9] = 25 uM, mean, read-out: Percentage survival at 25um, 25 uM mean
[10] = 100 uM, mean, read-out: Percentage survival at 100um, 100 uM mean
[11] = 100 uM, replicate (first column), read-out: Percentage survival at 100um, 100 uM A
[12] = 100 uM, replicate (second column), read-out: Percentage survival at 100um, 100 uM A
[13] = 100 uM, replicate (third column), read-out: Percentage survival at 100um, 100 uM A
[14] = 100 uM, replicate 1, read-out: Percentage survival at 100um, 100 uM A (first replicate column)
[15] = 100 uM, replicate 3, read-out: Percentage survival at 100um, 100 uM A (third replicate column)
[16] = 25 uM, mean of replicates, read-out: Percentage survival at 25um, 25 uM mean
[17] = 100 uM, mean of replicates, read-out: Percentage survival at 100um, 100 uM mean
[18] = 100 uM, replicate 1, read-out: Percentage survival at 100um, 100 uM A
[19] = 100 uM, replicate 2, read-out: Percentage survival at 100um, 100 uM A
[20] = 100 uM, replicate 3, read-out: Percentage survival at 100um, 100 uM A

**Q.** How did the activity at 25 µM [1] turn out when `COc1ccc(C2CNC(=O)C2)cc1OC1CCCC1` (stereo not drawn) [MMV003738] was run?
**A.** Its activity at 25 µM is 84.1%.

**Q.** And the activity at 25 µM [2]?
**A.** The activity at 25 µM was 73%.

**Q.** What about the activity at 25 µM [3] of the same compound?
**A.** The activity at 25 µM was 88.3%.

**Q.** What about the activity at 25 µM [4] of the same compound?
**A.** The activity at 25 µM was 90.9%.

**Q.** What about the activity at 100 µM [5] of the same compound?
**A.** Its activity at 100 µM is 78.1%.

**Q.** And the activity at 100 µM [6]?
**A.** The activity at 100 µM was 75%.

**Q.** What about the activity at 100 µM [7] of the same compound?
**A.** Its activity at 100 µM is 63%.

**Q.** What about the activity at 100 µM [8] of the same compound?
**A.** The activity at 100 µM was 84%.

**Q.** Which results are given for `CC[C@H](CO)Nc1nc(NCc2ccccc2)c2ncn(C(C)C)c2n1` [MMV003820]?
**A.** Percentage survival at 100um, 100 uM A: 50.7482% and 60.4702%; activity at 25 µM (read-out: Percentage survival at 25um, 25 uM B): 62.4%; activity at 25 µM (read-out: Percentage survival at 25um, 25 uM C): 43.5%; activity at 25 µM (read-out: Percentage survival at 25um, 25 uM mean): 63.8%; activity at 25 µM (read-out: Percentage survival at 25um, 25 um A): 85.5%; activity at 100 µM (read-out: Percentage survival at 100um, 100 uM A): 48.1%; activity at 100 µM (read-out: Percentage survival at 100um, 100 uM mean): 53.1%

**Q.** What does the source list for `Nc1nc(O)ncc1F` [MMV004508]?
**A.** activity at 25 µM [9]: 84%; activity at 25 µM [2]: 87.6%; activity at 25 µM [3]: 87.9%; activity at 25 µM [4]: 76.6%; activity at 100 µM [10]: 89.4%; activity at 100 µM [11]: 93.5%; activity at 100 µM [12]: 81.4%; activity at 100 µM [13]: 93.4%

**Q.** For `Cc1[nH]c2ccccc2c1CCNCc1ccc(/C=C/C(=O)NO)cc1` [MMV010036], which activity at 25 µM [1] is on record?
**A.** The activity at 25 µM was 90.9%.

**Q.** And the activity at 25 µM [2]?
**A.** The activity at 25 µM was 98.2%.

**Q.** What about the activity at 25 µM [3] of the same compound?
**A.** The activity at 25 µM was 95.9%.

**Q.** What about the activity at 25 µM [4] of the same compound?
**A.** Its activity at 25 µM is 78.7%.

**Q.** And the activity at 100 µM [5]?
**A.** The activity at 100 µM was 85.9%.

**Q.** What about the activity at 100 µM [6] of the same compound?
**A.** Its activity at 100 µM is 77.1%.

**Q.** What about the activity at 100 µM [7] of the same compound?
**A.** Its activity at 100 µM is 69.6%.

**Q.** And the activity at 100 µM [8]?
**A.** Its activity at 100 µM is 75.6%.

**Q.** How did the activity at 25 µM [1] turn out when `COc1ccc2nc(-c3ccccc3)cc(O)c2c1` [MMV011565] was run?
**A.** Its activity at 25 µM is 93.4%.

**Q.** And the activity at 25 µM [2]?
**A.** The activity at 25 µM was 91.4%.

**Q.** And the activity at 25 µM [3]?
**A.** The activity at 25 µM was 96.2%.

**Q.** And the activity at 25 µM [4]?
**A.** The activity at 25 µM was 92.7%.

**Q.** And the activity at 100 µM [6]?
**A.** The activity at 100 µM was 78.1%.

**Q.** And the activity at 100 µM [14]?
**A.** Its activity at 100 µM is 74.5%.

**Q.** What about the Percent fungal survival at 100 µM (100 uM, replicate 2) of the same compound?
**A.** Its Percent fungal survival at 100 µM is 80.2%.

**Q.** What about the activity at 100 µM [15] of the same compound?
**A.** The activity at 100 µM was 79.6%.

**Q.** With `O=C(O)c1cc(-c2ccccc2)nc2ccccc12` [MMV018362] as the compound, how does the activity at 25 µM [1] read?
**A.** Its activity at 25 µM is 91.7%.

**Q.** And the activity at 25 µM [2]?
**A.** Its activity at 25 µM is 97.4%.

**Q.** What about the activity at 25 µM [3] of the same compound?
**A.** The activity at 25 µM was 94.7%.

**Q.** What about the activity at 25 µM [4] of the same compound?
**A.** The activity at 25 µM was 83%.

**Q.** And the activity at 100 µM [5]?
**A.** The activity at 100 µM was 91%.

**Q.** What about the activity at 100 µM [6] of the same compound?
**A.** Its activity at 100 µM is 87.9%.

**Q.** And the activity at 100 µM [7]?
**A.** The activity at 100 µM was 79.7%.

**Q.** And the activity at 100 µM [8]?
**A.** The activity at 100 µM was 93.1%.

**Q.** Which activity at 25 µM (25 uM, mean of three, M. mycetomatis MM55, read-out: Percentage survival at 25um, 25 uM mean) does the source give for `CN1CCN(c2ccc3[nH]c(-c4ccc5[nH]c(-c6ccc(O)cc6)nc5c4)nc3c2)CC1` [MMV020752] here?
**A.** The activity at 25 µM was 67.2%.

**Q.** And the activity at 25 µM (25 uM, replicate A, M. mycetomatis MM55, read-out: Percentage survival at 25um, 25 um A)?
**A.** The activity at 25 µM was 67.7%.

**Q.** What about the activity at 25 µM (25 uM, replicate B, M. mycetomatis MM55, read-out: Percentage survival at 25um, 25 uM B) of the same compound?
**A.** The activity at 25 µM was 71.6%.

**Q.** What about the activity at 25 µM (25 uM, replicate C, M. mycetomatis MM55, read-out: Percentage survival at 25um, 25 uM C) of the same compound?
**A.** Its activity at 25 µM is 62.2%.

**Q.** And the activity at 100 µM (100 uM, mean of three, M. mycetomatis MM55, read-out: Percentage survival at 100um, 100 uM mean)?
**A.** The activity at 100 µM was 24.3%.

**Q.** What about the activity at 100 µM (100 uM, replicate 1, M. mycetomatis MM55, read-out: Percentage survival at 100um, 100 uM A (first replicate column)) of the same compound?
**A.** Its activity at 100 µM is 53.4%.

**Q.** What about the Percent fungal survival at 100 µM (100 uM, replicate 2, M. mycetomatis MM55) of the same compound?
**A.** Its Percent fungal survival at 100 µM is 14.6%.

**Q.** And the activity at 100 µM (100 uM, replicate 3, M. mycetomatis MM55, read-out: Percentage survival at 100um, 100 uM A (third replicate column))?
**A.** The activity at 100 µM was 4.7%.

**Q.** How did the activity at 25 µM [16] turn out when `Nc1nc(N)c2c(Sc3ccccc3)cccc2n1` [MMV021759] was run?
**A.** Its activity at 25 µM is 88.1%.

**Q.** What about the activity at 25 µM [2] of the same compound?
**A.** Its activity at 25 µM is 63.3%.

**Q.** And the activity at 25 µM [3]?
**A.** The activity at 25 µM was 65.8%.

**Q.** And the activity at 25 µM [4]?
**A.** The activity at 25 µM was 135%.

**Q.** What about the activity at 100 µM [17] of the same compound?
**A.** The activity at 100 µM was 5.59%.

**Q.** What about the activity at 100 µM [18] of the same compound?
**A.** The activity at 100 µM was -1.97%.

**Q.** And the activity at 100 µM [19]?
**A.** Its activity at 100 µM is 5.6%.

**Q.** What about the activity at 100 µM [20] of the same compound?
**A.** The activity at 100 µM was 13.1%.

**Q.** For `Cc1nc(Nc2ccc(F)cc2)nc(N2CCc3ccccc3C2C)c1C` (stereo not drawn) [MMV030787], which activity at 25 µM [9] is on record?
**A.** The activity at 25 µM was 63.9%.

**Q.** And the activity at 25 µM [2]?
**A.** Its activity at 25 µM is 74.6%.

**Q.** What about the activity at 25 µM [3] of the same compound?
**A.** Its activity at 25 µM is 56.2%.

**Q.** What about the activity at 25 µM [4] of the same compound?
**A.** Its activity at 25 µM is 61.1%.

**Q.** What about the activity at 100 µM [10] of the same compound?
**A.** The activity at 100 µM was 67.5%.

**Q.** And the activity at 100 µM [11]?
**A.** Its activity at 100 µM is 53.1%.

**Q.** What about the activity at 100 µM [12] of the same compound?
**A.** The activity at 100 µM was 63.5%.

**Q.** And the activity at 100 µM [13]?
**A.** Its activity at 100 µM is 86%.

**Q.** `Nc1nnc(-c2ccc(Cl)cc2)s1` [MMV046261] was tested. Which activity at 25 µM [16] did it give?
**A.** Its activity at 25 µM is 82.4%.

**Q.** What about the activity at 25 µM [2] of the same compound?
**A.** Its activity at 25 µM is 77.9%.

**Q.** And the activity at 25 µM [3]?
**A.** The activity at 25 µM was 83%.

**Q.** What about the activity at 25 µM [4] of the same compound?
**A.** Its activity at 25 µM is 86.2%.

**Q.** What about the activity at 100 µM [17] of the same compound?
**A.** The activity at 100 µM was 69.4%.

**Q.** And the activity at 100 µM [18]?
**A.** The activity at 100 µM was 62.5%.

**Q.** What about the activity at 100 µM [19] of the same compound?
**A.** Its activity at 100 µM is 72.1%.

**Q.** What about the activity at 100 µM [20] of the same compound?
**A.** Its activity at 100 µM is 73.6%.

**Q.** What does the source list for `NC(=O)c1c(N)sc2c1CCCCC2` [MMV056052]?
**A.** activity at 25 µM [1]: 95.4%; activity at 25 µM [2]: 93.9%; activity at 25 µM [3]: 104%; activity at 25 µM [4]: 87.9%; activity at 100 µM [6]: 84.7%; activity at 100 µM [14]: 86.2%; Percent fungal survival at 100 µM (100 uM, replicate 2): 80.1%; activity at 100 µM [15]: 87.9%
